Activity calls are given as the source filed them. The rule behind the calls is not given here.
Assays:
Carbonic anhydrase 2 [1] = molecular target: T1, Carbonic anhydrase 2 (Homo sapiens, UniProt P00918)
Description: 50% inhibition of human carbonic anhydrase II assayed by CO2 hydration catalyzed by human erythrocytes

Carbonic anhydrase 2 [2] = molecular target: T1, Carbonic anhydrase 2; assay: Concentration of inhibitor required to reduce the rate of carbonic anhydrase II catalyzed CO2 hydration by 50%.; conditions: read-out: I50
Oryctolagus cuniculus [3] = assay: Reduction in maximum Intra ocular pressure in the rabbit model of ocular hypertension, when treated with a minimum effective topical dose of 0.05%
Oryctolagus cuniculus [4] = assay: Reduction in maximum Intra ocular pressure in the rabbit model of ocular hypertension, when treated with a minimum effective topical dose of 0.25%
Oryctolagus cuniculus [5] = assay: Reduction in maximum Intra ocular pressure in the rabbit model of ocular hypertension, when treated with a minimum effective topical dose of 5%
Oryctolagus cuniculus [6] = assay: Reduction in maximum Intra ocular pressure in the rabbit model of ocular hypertension, when treated with a minimum effective topical dose of 0.10%
Oryctolagus cuniculus [7] = assay: Reduction in maximum Intra ocular pressure in the rabbit model of ocular hypertension, when treated with a minimum effective topical dose of 10%
Oryctolagus cuniculus [8] = assay: Reduction in maximum Intra ocular pressure in the rabbit model of ocular hypertension, when treated with a minimum effective oral dose of 1.25 mg/kg; assay type: functional, Eye
Oryctolagus cuniculus [9] = assay: Reduction in maximum Intra ocular pressure in the rabbit model of ocular hypertension, when treated with a minimum effective topical dose of 0.10%; remark: listed apart in the source
Oryctolagus cuniculus [10] = assay: Reduction in maximum Intra ocular pressure in the rabbit model of ocular hypertension, when treated with a minimum effective oral dose of 10 mg/Kg; NE is No Effect; assay type: functional, organism-based; conditions: Eye
Oryctolagus cuniculus [11] = assay: Reduction in maximum Intra ocular pressure in the rabbit model of ocular hypertension, when treated with a minimum effective topical dose of 10%; NE means No Effect; conditions: Eye

| Structure (SMILES) | IC50 (Carbonic anhydrase 2 [1]) | also measured |
| --- | --- | --- |
| CN(C)CCSCc1ccc2sc(S(N)(=O)=O)cc2c1 | 15 nM | – |
| CC(C)(C)C(=O)Oc1ccc2cc(S(N)(=O)=O)sc2c1 | – | IC50 (Carbonic anhydrase 2 [2]): 2.6 nM; Activity (Oryctolagus cuniculus [3]): -4.7 mmHg |
| COc1ccc2cc(S(N)(=O)=O)sc2c1 | 8.8 nM | – |
| CC(=O)c1ccc2cc(S(N)(=O)=O)sc2c1 | 6 nM | – |
| CC(C)(C)C(=O)Oc1ccc2nc(S(N)(=O)=O)sc2c1 | – | Activity (Oryctolagus cuniculus [4]): -7.8 mmHg |
| COc1cccc2cc(S(N)(=O)=O)sc12 | 50 nM | – |
| CC(=O)/N=c1/sc(S(N)(=O)=O)nn1C [METHAZOLAMIDE] | – | Activity (Oryctolagus cuniculus [5]): -5.1 mmHg |
| COCc1ccc2sc(S(N)(=O)=O)cc2c1 | 9 nM | – |
| NS(=O)(=O)c1cc2ccc(OP(=O)(O)O)cc2s1 | 100 nM | – |
| CC(C)(C)N1CC(COc2ccc3cc(S(N)(=O)=O)sc3c2)OC1=O (configuration not stated) | 8 nM | – |
| NS(=O)(=O)c1cc2c(O)cccc2s1 | 12 nM | – |
| CN(C)C(=O)Oc1ccc2sc(S(N)(=O)=O)cc2c1 | 5 nM | – |
| NS(=O)(=O)c1cc2ccc(OS(=O)(=O)O)cc2s1 | 6.8 nM | – |
| Nc1ccc2cc(S(N)(=O)=O)sc2c1 | 10 nM | – |
| NS(=O)(=O)c1cc2cc(CO)ccc2s1 | 9 nM | – |
| NS(=O)(=O)c1cc2cccc(O)c2s1 | 11 nM | – |

| Structure (SMILES) | IC50 (Carbonic anhydrase 2 [1]) | also measured |
| --- | --- | --- |
| CC(C)(C)NCC(O)COc1ccc2cc(S(N)(=O)=O)sc2c1 (configuration not stated) | 18 nM | – |
| NS(=O)(=O)c1cc2cc(CN3CCOCC3)ccc2s1 | 15 nM | – |
| NS(=O)(=O)c1cc2ccccc2s1 | 5.2 nM | – |
| CN(C)Cc1ccc2sc(S(N)(=O)=O)cc2c1 | 12 nM | – |
| NS(=O)(=O)c1cc2ccc(OCC(=O)O)cc2s1 | 14 nM | – |
| CC(C)COC(=O)Oc1ccc2cc(S(N)(=O)=O)sc2c1 | 5.6 nM | – |
| COc1cccc2sc(S(N)(=O)=O)cc12 | 12 nM | – |
| NS(=O)(=O)c1cc2cc(O)ccc2s1 | 6.2 nM | – |
| CC(=O)Oc1ccc2cc(S(N)(=O)=O)sc2c1 | – | IC50 (Carbonic anhydrase 2 [2]): 4 nM; Activity (Oryctolagus cuniculus [6]): -5.3 mmHg |
| NS(=O)(=O)c1cc(Cl)c(Cl)c(S(N)(=O)=O)c1 [DICHLORPHENAMIDE] | – | Activity (Oryctolagus cuniculus [7]): -4.7 mmHg |
| NS(=O)(=O)c1cc2ccc(O)cc2s1 | – | Activity (Oryctolagus cuniculus [3]): -5.6 mmHg; Activity (Oryctolagus cuniculus [8]): -7.7 mmHg; Activity (Oryctolagus cuniculus [9]): -6.6 mmHg |
| CC(=O)Nc1nnc(S(N)(=O)=O)s1 [ACETAZOLAMIDE] | – | Activity (Oryctolagus cuniculus [10]): inactive; Activity (Oryctolagus cuniculus [8]): -6.3 mmHg |
| CCOc1ccc2nc(S(N)(=O)=O)sc2c1 | – | Activity (Oryctolagus cuniculus [11]): inactive |
| CC(=O)Nc1ccc2cc(S(N)(=O)=O)sc2c1 | 4.8 nM | – |
| CC(=O)OCc1ccc2sc(S(N)(=O)=O)cc2c1 | 10 nM | – |
| COc1ccc2sc(S(N)(=O)=O)cc2c1 | 23 nM | – |
